Earlier results on 1 substance are cited in patent US20070098643A1, “Oligomers of gadolinium chelates, their applicationascontrast products in magnetic resonance imaging and their synthesis intermediates” (priority 2002, published 2007).

For data set [1], the system named is benign and malignant breast tumors. To be noted: in this model; Daldrup-Link et al. 2000.
The conditions of data set [2]: in vivo.

Regarding Gadomer-17, the “differentiation of benign from malignant tumors in MRI” value in data set [1] is given as “does not allow such a differentiation”. For the same substance, in data set [2], the C5/C0 ratio was 21%, the distribution volume is 130 mL/kg, the plasma half-life is 37 min and the total plasma clearance is 8.1 mL/min/kg.
